PMC9374667 (Communications Biology, 2022)
“And” between values parts separate entries of the source, which are not always exact repeats. Identical values can stand only once.

Columns and labels:
[1] = test system: db/db mice; test: Glucose tolerance test (GTT); assay type: in vivo; set-up: blood glucose level / blood glucose AUC: unit not given here; conditions: BBR 150mg/kg; for blood glucose level, mean: mean of 10 mice
[2] = test system: db/db mice; test: HE staining of epididymal adipose tissue, adipocyte size; assay type: in vivo
Protocol: The adipose tissue was fixed overnight in 4% paraformaldehyde, then embedded in paraffin and cut into 5 µm thick slices. Tissue sections were stained with hematoxylin and eosin (H&E). For immunohistochemistry, sections were incubated with primary antibodies against F4/80 (1:100 dilution) diluted in the blocking solution at 4 °C overnight. The tissue sections were then incubated with the horseradish peroxidase (HRP)-conjugated secondary antibody at room temperature for 2 h. Finally, the sections were developed with diaminobenzidine (DAB) and counterstained with hematoxylin. Images were obtained under a microscope. To quantify the F4/80-positive macrophages, two random fields per sample were analyzed by Image J software. The IHC profiler plugin of ImageJ was used to calculate the F4/80 positive area.

[3] = pH of the solution after 24 hours of the dissolution test; assay type: physicochemical
Protocol: Solubilities were determined by adding excess sample to 30 mL different mediums, such as HCl solution, acetate buffer, phosphate buffer, SGF, FaSSIF and FeSSIF. The configuration of various buffer solutions is shown in Supplementary Table 2. After being shaken at 400 rpm at 37 °C for 0.5, 1, 2, and 24 h, 0.3 mL of suspension was sampled and centrifuged at 14,000 rpm for 8 min to isolate mother liquor, and then analyzed by HPLC after dilution. All samples were analyzed in triplicate. […]
into a 1000 mL flask followed by addition of about 800 mL of deionized water. The mixture is stirred until all solids are dissolved.
Add about 100 mL of 0.1 N HCl, check pH value with a pH meter and adjust the pH to 2.0 with HCl (1 N) or NaOH (1 N). Then dilute to the volume with deionized water.
* 1N sodium hydroxide: Weigh 8 g NaOH in a 200 mL plastic volumetric flask, add deionized water to volume and mix well. […]
phosphate and 3.093 g sodium chloride in a 500 mL volumetric flask, add about 0.450 L deionized water, and adjust the pH to 6.5 with 1N sodium hydroxide or 1 N hydrochloric acid. Make up to volume (0.5 […]
Step 2: Place and dissolve 1.120 g FaSSIF/FeSSIF/FaSSGF instant powder with 0.250 L of buffer (from step 1) in a 500 mL volumetric flask, then add buffer (from step 1) to volume, and mix well. […]
g sodium chloride in a 500 mL volumetric flask, add about 0.450 L deionized water, and adjust the pH to 5.0 with 1 N sodium hydroxide or 1 N hydrochloric acid. Make up to volume (500 mL) with
Step 2: Place and dissolve 5.600 g FaSSIF/FeSSIF/FaSSGF instant […]
0.750 L deionized water. Make up to volume (1000 mL) with deionized water and placed overnight.
(1 picture or pasted object on this page, not shown here)

[4] = test system: db/db mice; test: Fat depots weight (BAT, iWAT, eWAT; percentage of body weight); assay type: in vivo; set-up: key to BAT fat depot weight (Figure 4c): % of body weight (fat depot weight / body weight * 100%); conditions: db/db mice
Protocol: The lean wild type control and the db/db control mice were given equal vehicle volume (0.5% CMC-Na solution). All mice were monitored for food intake, body weight, and fasting blood glucose during the 35-day trial. Glucose tolerance test (GTT) and insulin resistance test (ITT) were performed at 4 and 5 weeks of treatment, respectively. Metabolic analysis was performed at 5 weeks of treatment. At the end of the study, blood samples were taken through the retroorbital venous sinus of mice, fat depots (brown fat, inguinal subcutaneous fat, epididymal fat, perirenal fat and mesenteric fat depot) were dissected, weighed, and immediately frozen in liquid nitrogen and stored at −80 °C until required. Weight of fat depots are expressed in percentage (fat depots weight /bodyweight * 100%).

[5] = test system: db/db mice; test: Fasting serum insulin levels (ELISA); assay type: in vivo; set-up: insulin level (Figure 5b): unit not given here; conditions: db/db mice
Protocol: (§1) Mice were fasted for 4 h for insulin resistance test and intraperitoneally injected with 1 unit/kg of insulin. Blood glucose levels were measured from the tail vein blood at 0, 15, 30, 45, 60, 90, and 120 min after injection. Plasma insulin levels were measured using an ultrasensitive mouse insulin ELISA kit (Nanjing Jiancheng Bioengineering Institute, Nanjing, China).

[6] = test system: db/db mice; test: Insulin tolerance test (ITT), AUC and initial slope; assay type: in vivo; set-up: blood glucose AUC: unit not given here; conditions: BBR 150mg/kg; for blood glucose level: in mmol/L (unit assumed)
Protocol: as §1

[7] = individual mice, time column 1 of 7 (time not printed)
[8] = individual mice, time column 2 of 7 (time not given)
[9] = individual mice, time column 3 of 7 (time not given)
[10] = individual mice, time column 4 of 7 (time not given)
[11] = individual mice, time column 5 of 7 (time not given)
[12] = individual mice, time column 6 of 7 (time not given)
[13] = individual mice, time column 7 of 7 (time not printed)
[14] = BJ 75 and 150 mg/kg, BBR 150 mg/kg, Ibu 150 mg/kg
[15] = BBR 150mg/kg, individual mice 1-10, in %

In the case of `COc1ccc2cc3[n+](cc2c1OC)CCc1cc2c(cc1-3)OCO2` [BBR, Berberine chloride dihydrate], the blood glucose level [1, 7] is reported as 16.4 and 13.5 and 14.2 and 17.7 and 15.0 and 13.4 and 16.8, the blood glucose level [1, 8] is reported as 28.7 and 28.8 and 32.6 and 33.3 and the blood glucose level [1, 9] is reported as 31.2 and 22.4 and 33.3 and 29.2. The blood glucose level [1, 10] was 27.9 and 29.2 and 23.4 and 32.4 and 30.4, the blood glucose level [1, 11] was 28.4 and 22.4 and 33.3 and 28.6 and the blood glucose level [1, 12] was 23.4 and 21.0 and 20.5. For the same compound, the blood glucose level [1, 13] was 17.7 and 16.7 and 22.7 and 19.6 and 20.9, the blood glucose level, mean ([1]; time column 1 of 7 (time not printed)) was 15 mmol/L and the blood glucose level, mean ([1]; time column 2 of 7 (time not given)) was 30.7 mmol/L. The blood glucose level, mean ([1]; time column 3 of 7 (time not given)) was 28.4 mmol/L, the blood glucose level, mean ([1]; time column 4 of 7 (time not given)) was 27.7 mmol/L and the blood glucose level, mean ([1]; time column 6 of 7 (time not given)) was 22.6 mmol/L. For the same compound, the blood glucose level, mean ([1]; time column 7 of 7 (time not printed)) was 20.1 mmol/L, the “blood glucose AUC” value ([1]; Figure 5d, individual mice) was 3443.25 and 3088.5 and 2416.5 and 3051.75 and 2479.5 and 3425.25 and 2977.5 and 2793.75 and 3132 and 3001.5 and the “Cell diameter (adipocyte size of eWAT)” value ([2]; 150 mg/kg, individual cells) was 112.956 µm and 111.168 µm and 109.684 µm and 107.318 µm and 103.404 µm and 102.799 µm and 102.56 µm and 100.649 µm and 97.9486 µm and 97.2359 µm and 94.5814 µm and 93.4958 µm and 92.5409 µm and 90.4031 µm and 87.905 µm and 126.009 µm and 123.446 µm and 119.401 µm and 113.9 µm and 113.401 µm. For the same compound, the “Size of adipocytes in eWAT compared with vehicle” value [2, 14] was “significantly reduced”, the “pH of the solution after 24 hours” value ([3]; Acetate buffer, blank vehicle 4.54) was 4.57 and the “pH of the solution after 24 hours” value ([3]; CMC-Na, blank vehicle 6.51) was 6.20. The “pH of the solution after 24 hours” value ([3]; FaSSIF-v1, blank vehicle 6.51) was 6.54, the “pH of the solution after 24 hours” value ([3]; FeSSIF-v1, blank vehicle 5.04) was 5.03 and the “pH of the solution after 24 hours” value ([3]; HCl solution, blank vehicle 1.08) was 1.05. The “pH of the solution after 24 hours” value ([3]; Phosphate buffer, blank vehicle 6.84) was 6.90, the “pH of the solution after 24 hours” value ([3]; SGF, blank vehicle 2.03) was 2.07 and the “BAT fat depot weight (Figure 4c)” value ([4]; BBR 150mg/kg, individual mice 1-10) was 2.4015 and 0.6109 and 1.4913 and 1.4054 and 1.8804 and 2.4038 and 1.1343 and 1.618 and 1.1772 and 2.0775. The “eWAT fat depot weight (Figure 4c)” value [4, 15] was 2.6561 and 3.1311 and 2.7778 and 2.6199 and 2.8014 and 3.2406 and 2.7924 and 3.779 and 2.6477 and 2.5027, the “iWAT fat depot weight (Figure 4c)” value [4, 15] was 3.5734 and 2.9857 and 2.7524 and 3.658 and 3.8567 and 3.8981 and 3.3728 and 3.0795 and 1.8382 and 2.8305 and the “Fat depots weight / body weight” value ([4]; 150 mg/kg for 35 days, individual mice, 150 mg/kg) was 19.7808% and 22.3551% and 14.9978% and 19.6619% and 20.7394% and 16.7296% and 16.0902% and 17.3833% and 23.2726% and 23.7021%. The “Fat depots weight compared with vehicle” value [4, 14] was “lower fat depots weight than vehicle-treated db/db mice”, the “insulin level (Figure 5b)” value ([5]; BBR 150mg/kg, fasting serum, individual mice 1-6) was 14.8249 and 14.5179 and 14.1979 and 10.7342 and 12.3345 and 12.7422 and the “Fasting serum insulin levels” value ([5]; 150 mg/kg, 35 days of treatment, vs vehicle) was “did not produce significant effects”. For the same compound, the blood glucose level [6, 7] was 19.2 and 16.4 and 9.2 and 15.3 and 9.5 and 19.6 and 19.0 and 21.8 and 10.2, the blood glucose level [6, 8] was 18.1 and 16.0 and 9.1 and 15.7 and 11.1 and 18.6 and 18.3 and 22.5 and 13.5 and the blood glucose level [6, 9] was 14.4 and 12.6 and 7.4 and 12.2 and 7.9 and 18.7 and 13.6 and 19.0 and 15.5 and 10.0. The blood glucose level [6, 10] was 12.3 and 9.3 and 4.0 and 8.5 and 6.8 and 15.1 and 11.8 and 17.7 and 13.7 and 6.9, the blood glucose level [6, 11] was 10.3 and 9.1 and 4.5 and 8.8 and 7.2 and 13.0 and 10.2 and 17.4 and 10.8 and 7.5 and the blood glucose level [6, 12] was 11.7 and 9.8 and 3.9 and 8.9 and 7.6 and 15.8 and 11.2 and 20.0 and 12.2 and 8.2. For the same compound, the blood glucose level [6, 13] was 11.0 and 10.0 and 4.1 and 9.3 and 6.7 and 17.4 and 10.3 and 19.0 and 11.5 and 7.3, the “blood glucose AUC” value ([6]; Figure 5f, individual mice) was 948.75 and 1960.5 and 1518 and 2328 and 1638 and 1056.75 and 1563.75 and 1340.25 and 656.25 and 1265.25 and the “Initial Slope” value ([6]; db/db mice, individual animals (Figure S10a)) was -0.0533 mmol/L/min and -0.03 mmol/L/min and -0.18 mmol/L/min and -0.0933 mmol/L/min and -0.1367 mmol/L/min and -0.0067 mmol/L/min and -0.16 mmol/L/min and -0.1267 mmol/L/min and -0.06 mmol/L/min and -0.1033 mmol/L/min.
